A short description of this data set: rat acute oral toxicity. To be noted: in vivo.

Molecules are shown by their SMILES. Several values for one entry are separate records, joined by “and”; a condition that tells them apart may be missing. Equal values may be shown once.

Broadly, the LD50 is the dose at which mortality reaches 50%. Lower therefore signals greater toxicity.

For `Cc1ccc(NC(=O)N(C)C)cc1Cl`, the LD50 came to 5800 mg/kg. Then `O=C(O)COc1nc(Cl)c(Cl)cc1Cl`, with 630 mg/kg. With `CC(C)N(C(=O)CCl)c1ccccc1` the figure was 710 mg/kg; with `C=CCn1c(=O)n(CC=C)c(=O)n(CC=C)c1=O`, 707 mg/kg. Then `CN(C)C(=O)Nc1ccccc1`, with 6400 mg/kg; and `CN(C)CCC=C1c2ccccc2CCc2ccccc21`, with 280 mg/kg. Turning to `CC(C)(C)OOC(=O)c1ccccc1`, the median lethal dose (LD50) amounted to 1010 mg/kg.

As to `CC(C)CCCCCCO`, the LD50 is 2980 mg/kg. Then `C1CO1`, with 72 mg/kg; and `CCCC(=O)Nc1ccc(OCC(O)CNC(C)C)c(C(C)=O)c1` (stereo not drawn), with 3200 mg/kg; and `CCCCCCCCC=CCCCCCCCCOCCO`, with 2700 mg/kg. With `CCCCOCCOCCO` the figure was 5080 mg/kg. `ClCCCBr` returned an LD50 of 930 mg/kg. On to `CC(Oc1cc(Cl)c(Cl)cc1Cl)C(=O)O` (stereo not drawn), for which the LD50 was found to be 650 mg/kg.

The compound `OC(c1ccc(Cl)cc1)(c1ccc(Cl)cc1)C(Cl)(Cl)Cl` came in with an LD50 of 575 mg/kg. `COCC(C)OC(C)=O` (stereo not drawn) displayed an LD50 of 5160 mg/kg.

`NCCNCCN` came in with a 50% lethal dose (LD50) of 1080 mg/kg.

As to `O=[N+]([O-])c1ccc(Cl)cc1O`, the LD50 stood at 1000 mg/kg. With `CCCCC(CC)COS(=O)(=O)O` (stereo not drawn) the figure was 2840 mg/kg; with `Oc1ccc(Cl)cc1Cl`, 47 mg/kg; with `CCOP(=S)(NC(C)C)Oc1ccccc1C(=O)OC(C)C` (stereo not drawn), 21.1 mg/kg. In turn, `CCN(CC)CCCN` yielded an LD50 of 410 mg/kg. With `CCCCCCCCCCCCCCCCCCOCCO` the figure was 1900 mg/kg; with `CCNc1nc(Cl)nc(NC(C)(C)C)n1`, 1500 mg/kg; with `CN(C)CCCCCCN(C)C`, 238 mg/kg. Then `CC(=O)C1C(=O)C=C(C)OC1=O` (stereo not drawn), with 500 mg/kg; and `CCCCCCCCCCCCCC[N+](C)(C)Cc1ccccc1`, with 281 mg/kg. With `C=CC(=O)OCCCC`, the LD50 stood at 900 mg/kg. Then `CCN(CC)C(=O)N1CCN(C)CC1`, with 1380 mg/kg; and `Cc1cc(O)ccc1Cl`, with 1830 mg/kg; and `N#CCC(=O)O`, with 1010 mg/kg.

Compound `O=C(NC(=O)c1c(F)cccc1F)Nc1ccc(Cl)cc1` returned an LD50 of 790 mg/kg.

Compound `CC(C)CCCCCCCCCCOP(OCCCCCCCCCCC(C)C)OCCCCCCCCCCC(C)C` displayed an LD50 of 12000 mg/kg. Then `ClC(Cl)Br`, with 916 mg/kg.

For the compound `CC/C(C)=N/O[Si](C)(O/N=C(\C)CC)O/N=C(\C)CC`, the LD50 worked out at 2450 mg/kg. Then `CCO[Si](CCCN)(OCC)OCC`, with 1570 mg/kg; and `Cc1ccccc1OP(=O)(Oc1ccccc1C)Oc1ccccc1C`, with 1160 mg/kg; and `Oc1cccc(O)c1`, with 301 mg/kg. Then `CCCCOCCOC(=O)COc1ccc(Cl)cc1Cl`, with 831 mg/kg. Regarding `C1=CCCC=CCCC=CCC1`, the LD50 turned out to be 1780 mg/kg. With `c1ccc(CNc2[nH]cnc3ncnc2-3)cc1` the figure was 1300 mg/kg; with `CCCCOC(=O)CCCCCCCCC(=O)OCCCC`, 14900 mg/kg. Then `CC(=O)OC(C)(C)C`, with 4100 mg/kg. With `CCOP(=S)(OCC)SCCSCC` the figure was 1.9 mg/kg; with `CC1(C)[C@H](/C=C(\Cl)C(F)(F)F)[C@@H]1C(=O)O[C@H](C#N)c1cccc(Oc2ccccc2)c1`, 114 mg/kg. `CCCCCCCCCC(=O)O` displayed an LD50 of 3320 mg/kg. Take `c1ccc2ccccc2c1`: the 50% lethal dose (LD50) came to 2200 mg/kg. Then `O=[N+]([O-])c1ccc(Oc2ccc(Cl)cc2Cl)cc1`, with 2410 mg/kg; and `ClCC(Cl)CCl`, with 136 mg/kg. Then `C=CC(=O)OCC(O)COCCCCOCC(O)COC(=O)C=C` (stereo not drawn), with 200 mg/kg. With `CNC(=S)S` the figure was 615 mg/kg. For the compound `CC(C)(C)c1ccc(O)c(O)c1`, the LD50 was 815 mg/kg.

On to `C=C(C)C(=O)OCCN(C)C`, for which the LD50 was found to be 455 mg/kg. Then `CCCOCC(C)O` (stereo not drawn), with 2490 mg/kg.

The compound `C[C@@H]1Cc2c(Cl)cc(C(=O)N[C@@H](Cc3ccccc3)C(=O)O)c(O)c2C(=O)O1` gave an LD50 of 20 mg/kg.

For `O=C(O)COc1ccc(Cl)cc1Cl`, the LD50 was 625 mg/kg and 552 mg/kg and 370 mg/kg.

`O=C=Nc1cccc(C(F)(F)F)c1` came in with an LD50 of 975 mg/kg. `CNC(=O)Oc1cccc2c1OC(C)(C)C2` came in with an LD50 of 5.15 mg/kg. Then `CC#N`, with 2490 mg/kg; and `Clc1cc2c(c(Cl)c1Cl)Oc1c(cc(Cl)c(Cl)c1Cl)O2`, with 0.8 mg/kg. As for `CC[Si](Cl)(Cl)Cl`, the LD50 amounted to 800 mg/kg.

As to `O=P1(N(CCCl)CCCl)NCCCO1` (stereo not drawn), the LD50 was found to be 100 mg/kg. With `CC1(C)C(=O)N(Br)C(=O)N1Br` the figure was 250 mg/kg; with `C=CC1CC2C=CC1C2` (stereo not drawn), 5240 mg/kg. In turn, `CCO[Si](CCCSC#N)(OCC)OCC` had an LD50 of 986 mg/kg. Then `NNc1nncc2ccccc12`, with 173 mg/kg; and `O=C(OC1CCCCC1)c1ccccc1O`, with 3030 mg/kg; and `O=C(O)c1ccccc1O`, with 930 mg/kg and 891 mg/kg.
